What was measured:
[1] = system: mouse wound model (6 mm punch biopsy wound held open by a silicone splint ring); experiment: In vivo mouse wound model: re-epithelialization (H&E) after Flx+ delivery from wearable bioelectronic bandage
From the text: (§1) FIG. 6 illustrates testing of the efficacy of the bioelectronic bandage in vivo on a mouse wound model. We created a 6 mm punch biopsy wound held open by a silicone splint ring to minimize wound contraction (FIG. 6A). Wound contraction is a major wound healing process in mice but not humans. It confounds the histological analysis of the wound reponse to therapy, particularly re-epithelialization [12b, 13]. A gas-permeable, transparent adhesive dressing, Tegaderm™, fixes the bioelectronic bandage to the mouse (FIG. 6A, right) so that the mouse can move around its cage without interference (FIG. 6B). This is possible because the lightweight bandage (2.5 g) represents less than 10% of the mouse weight. For this test, we programmed the bandage to deliver Flx^+ for three days for six hours per day (FIG. 6C).
(§2) We utilized a machine-learning algorithm reported to analyze images of wounds and evaluate their condition and healing progression (FIG. 6D). The algorithm automatically marked the wound area and analyzed the wound size (FIG. 6E). […] To further investigate healing, the wounds were fully excised at the end of the experiment, fixed, and stained with hematoxylin and eosin (H&E) to assess wound re-epithelialization (FIG. 6G-H). […] This variability allowed us to qualitatively correlate the dose of Flx^+ and wound healing as measured by the percentage of re-epithelization (FIG. 6J, right). […]

[2] = system: mouse wound model (6 mm punch biopsy wound); experiment: Wound size analysis from wound images by machine-learning algorithm; format: in vivo; conditions: fluoxetine-treated wounds, similar trend to control
From the text: as §1, §2

[3] = system: M1 and M2 macrophages in the wound; experiment: Macrophage analysis of the wound (immunohistochemistry, M1 iNOS / M2 CD206 / F4/80); format: in vivo, mouse
From the text: All cells (stained by DAPI, shown in blue), M1 (stained by iNOS, shown in green), M2 (stained by CD206, shown in red), and overall macrophages (stained by F4/80, shown in gray) were imaged and presented, FIG. 7b is an overlay of M1 and M2 staining, showing the distribution and ratio of macrophage subtypes, FIG. 7c is a box plot showing statistics of the M1/M2 ratio, which was 1.80+/−0.62 in the control group and 1.31+/−0.46 for the fluoxetine-treated group. […] The blue dot represents the M1/M2 ratio from the control group, and the red dot represents the fluoxetine-treated group. The dashed lines indicate the projected wound age, while the solid line represents the trend plotted from the data in the reference..
After analyzing the promising re-epithelization data, we delved deeper into another crucial indicator of wound healing: the M1/M2 macrophage ratio (FIG. 7). Macrophages play a pivotal role in the immune response and are crucially involved in the healing and regeneration of wounds. Although macrophages are phenotypically heterogeneous over a continuum, a simplified classification based on their polarized functions during the different stages of wound repair defines the M1 subtype that carries out pro-inflammatory activities and the M2 subtype that is anti-inflammatory and promotes tissue repair. […] Meanwhile, the number of M2-like macrophages increased in the center of the fluoxetine-treated wound, as depicted in FIG. 7A.

SMILES: CNCCC(Oc1ccc(C(F)(F)F)cc1)c1ccccc1 (stereo not shown) [fluoxetine]
- increase in re-epithelialization compared to control ([1]; Flx+ delivered from the bioelectronic bandage, three days, six hours per day, H&E of excised wounds, P<0.05): 39.9%
- reepithelization in mouse 2 (>300 nMol per day Flx+) versus mouse 15 (10× smaller dose) ([1]; qualitative dose comparison, bioelectronic bandage): much faster
- wound size trend over time [2]: slight increase in size at day 1, followed by a decrease on subsequent days
- decrease in M1/M2 ratio compared to control ([3]; day 3, n=13 mice, P<0.05): 27.2%
- M1/M2 ratio ([3]; fluoxetine-treated group, day 3, n=13 mice): 1.31+/−0.46
- number of M2-like macrophages in the center of the wound ([3]; fluoxetine-treated wound, day 3): increased
- M1 macrophage infiltration of the center of the wound ([3]; three days after injury, control wound significantly infiltrated): no change

From patent US20240366930A1, “WEARABLE BIOELECTRONICS FOR PROGRAMMABLE DELIVERY OF THERAPY” (The Regents of the University of California, priority 2023, published 2024)
